Assay results taken from US20140142128A1, “METHODS OF TREATING A DISEASE OR DISORDER ASSOCIATED WITH BRUTON'S TYROSINE KINASE” (Celgene Avilomics Research, Inc., priority 2012, published 2014).
pEC50: −log10 of the molar value.

How the values were obtained:
relapsed/refractory CLL = conditions: lenalidomide 25 mg for 21 days of every 28-day cycle; cited from earlier work
[1] = system: Btk responsive site (Tyr1217) on PLCγ2; assay: PLCγ2 phosphorylation in Ramos cells; assay type: cell-based; conditions: human Burkitt lymphoma cell line, read-out: EC50, inhibition of phosphorylation of the Btk responsive site (Tyr1217) on PLCγ2

SMILES | Clinical responses (CR or PR) in subjects refractory to fludarabine (relapsed/refractory CLL) [%] | Clinical responses (CR or PR) in subjects with del (11)(q23) and/or del (17)(p13.1) adverse cytogenetics (relapsed/refractory CLL) [%] | pEC50 [1]
Nc1cccc2c1CN(C1CCC(=O)NC1=O)C2=O (stereo not drawn) [lenalidomide, 3-(4-amino-1-oxo-1,3-dihydro-2H-isoindol-2-yl)piperidine-2,6-dione] | 30 | 47 | –
C=CC(=O)Nc1cccc(Nc2nc(Nc3ccc(OCCOC)cc3)ncc2F)c1 [Compound 1, N-(3-(5-fluoro-2-(4-(2-methoxyethoxy)phenylamino)pyrimidin-4-ylamino)phenyl)acrylamide] | – | – | 8.00 to 9.00
